Source: patent publication US5886007A (priority 1997, dated 1999)
Where two headings read alike, the source gives them in different places.

How the values were obtained:
[1] = target: T1, rat brain AChE (Rattus norvegicus, UniProt P37136); assay: biochemical
T1 construct: Rat brain homogenate prepared in 10 ml/g 10 mM Tris, pH 7.4, plus 1% Triton X-100 was used as a source of AChE; from tissue; host or cells: rat brain homogenate (10 mM Tris, pH 7.4, 1% Triton X-100)

[2] = target: T2, rat serum BChE (Rattus norvegicus, UniProt Q9JKC1); assay: biochemical
T2 construct: rat serum was the source of BChE; from tissue; host or cells: rat serum
T2 sequence (Q9JKC1 24-597): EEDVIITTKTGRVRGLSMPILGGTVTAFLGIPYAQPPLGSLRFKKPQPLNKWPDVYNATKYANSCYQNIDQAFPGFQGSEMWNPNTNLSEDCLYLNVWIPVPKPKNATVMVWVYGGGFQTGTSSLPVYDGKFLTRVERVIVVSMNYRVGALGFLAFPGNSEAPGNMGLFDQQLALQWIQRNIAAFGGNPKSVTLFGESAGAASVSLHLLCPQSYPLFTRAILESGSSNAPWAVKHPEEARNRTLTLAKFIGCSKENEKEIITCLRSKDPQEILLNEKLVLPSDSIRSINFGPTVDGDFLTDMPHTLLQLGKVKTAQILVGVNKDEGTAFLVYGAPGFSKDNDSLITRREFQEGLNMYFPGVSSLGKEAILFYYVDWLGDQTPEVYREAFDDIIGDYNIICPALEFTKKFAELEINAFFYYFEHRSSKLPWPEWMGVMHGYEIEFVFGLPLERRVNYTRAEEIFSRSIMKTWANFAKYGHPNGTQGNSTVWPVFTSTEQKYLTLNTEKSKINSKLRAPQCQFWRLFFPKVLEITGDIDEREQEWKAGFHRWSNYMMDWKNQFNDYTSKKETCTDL

[3] = current use of THA limited; cited from earlier work

T1 sequence (P37136 32-614): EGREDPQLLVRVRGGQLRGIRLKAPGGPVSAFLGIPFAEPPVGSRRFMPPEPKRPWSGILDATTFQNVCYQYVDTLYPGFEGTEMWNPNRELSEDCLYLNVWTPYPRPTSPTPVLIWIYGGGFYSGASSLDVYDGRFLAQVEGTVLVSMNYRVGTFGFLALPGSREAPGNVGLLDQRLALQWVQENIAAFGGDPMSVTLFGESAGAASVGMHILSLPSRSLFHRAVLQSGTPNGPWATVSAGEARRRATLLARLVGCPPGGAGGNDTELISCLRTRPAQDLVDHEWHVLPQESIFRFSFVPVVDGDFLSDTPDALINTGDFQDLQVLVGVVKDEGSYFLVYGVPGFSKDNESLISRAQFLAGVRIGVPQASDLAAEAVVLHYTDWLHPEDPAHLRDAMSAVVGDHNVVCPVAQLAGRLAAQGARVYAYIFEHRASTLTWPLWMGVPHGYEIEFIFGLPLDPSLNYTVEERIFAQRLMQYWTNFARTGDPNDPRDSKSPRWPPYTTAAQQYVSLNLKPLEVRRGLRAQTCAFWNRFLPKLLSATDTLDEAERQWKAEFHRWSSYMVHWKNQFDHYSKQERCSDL

Row | Structure (SMILES) | IC50 [1] | Selectivity [1] | IC50 [2] | also measured
1 | c1ccc2c(NCCCCCCCNc3c4c(nc5ccccc35)CCCC4)c3c(nc2c1)CCCC3 [1a, 1-7-n-Heptylene-bis-9,9'-amino-1,2,3,4-tetrahydroacridine] | – | – | – | times more potent than THA in inhibiting rat brain AChE [1]: 1000 times
2 | c1ccc2c(NCCCCCCCCNc3c4c(nc5ccccc35)CCCC4)c3c(nc2c1)CCCC3 [1b, 1-8-n-Octylene-bis-9,9'-amino-1,2,3,4-tetrahydroacridine] | 0.5 nM | 432.0 | 216 nM | –
3 | c1ccc2c(NCCCCCCCCCCNc3c4c(nc5ccccc35)CCCC4)c3c(nc2c1)CCCC3 [1d, 1-10-n-Decylene-bis-9,9'-amino-1,2,3,4-tetrahydroacridine] | 2 nM | 180.0 | 360 nM | –
4 | c1ccc(CCCCNc2c3c(nc4ccccc24)CCCC3)cc1 [2a, (4-Phenyl-butyl)-(1,2,3,4-tetrahydro-acridine-9-yl)-amine] | 1500 nM | – | – | –
5 | c1ccc(CCCCCNc2c3c(nc4ccccc24)CCCC3)cc1 [2b, (5-Phenyl-pentyl)-(1,2,3,4-tetrahydro-acridine-9-yl)-amine] | – | 0.3 | 500 nM | IC50 ([1]; pH 7.4, read-out: IC50 rat brain AChE): 1500 nM
6 | c1ccc(CCCCCCNc2c3c(nc4ccccc24)CCCC3)cc1 [2c, (6-Phenyl-hexyl)-(1,2,3,4-tetrahydro-acridine-9-yl)-amine] | 520 nM | 1.5 | 800 nM | –
7 | c1ccc(CCCCCCCNc2c3c(nc4ccccc24)CCCC3)cc1 [2d, (7-Phenyl-heptyl)-(1,2,3,4-tetrahydro-acridine-9-yl)-amine] | 360 nM | 2.8 | – | IC50 ([2]; read-out: IC50 rat serum BChE): 1000 nM
8 | c1ccc(CCCCCCCCNc2c3c(nc4ccccc24)CCCC3)cc1 [2e, (8-Phenyl-octyl)-(1,2,3,4-tetrahydro-acridine-9-yl)-amine] | 220 nM | 9.1 | 2000 nM | potency of 2e and THA relative to compound 1a against rat brain AChE [1]: weaker; potency ranking within class / chain length dependence of AChE inhibition [1]: the most potent; relative potency of 2e and THA against rat brain AChE [1]: nearly equipotent
9 | c1ccc(CCCCCCCCCNc2c3c(nc4ccccc24)CCCC3)cc1 [2f, (9-Phenyl-nonyl)-(1,2,3,4-tetrahydro-acridine-9-yl)-amine] | 3000 nM | 3.3 | 10000 nM | –
10 | c1ccc(CCCCCCCCCCNc2c3c(nc4ccccc24)CCCC3)cc1 [2g, (10-Phenyl-decyl)-(1,2,3,4-tetrahydro-acridine-9-yl)-amine] | 3000 nM | – | – | –
11 | Nc1c2c(nc3ccccc13)CCCC2 [THA, 9-amino-1,2,3,4-tetrahydroacridine] | – | – | – | hepatoxicity [3]: serious hepatoxicity
